The text below walks through data of ChEMBL document CHEMBL5104234, “Targeted protein degradation using the lysosomal pathway” (RSC Med Chem, 2022).

In one data set the test system is Mus musculus. Nature of the data set: Antidiabetic activity in high fat diet-induced obese db/db mouse assessed as reduction in total lipid concentration at 30 mg/kg,ip administered for 2 weeks. It is filed as functional. Details: scale not given: the % may be the effect or the level left.
Data set [1] can be described thus: Cytoprotective activity against Down syndrome patient-derived human Detroit 532 cells assessed as increase in mitochondrial membrane potential at 10 uM incubated for 3 days by JC-1 staining based fluorescence microscopy. It is filed as functional. To be noted: time 3 day.
A short description of data set [2]: Drug uptake in human HepG2 cells with ASGPR overexpression assessed as fold increase in intracellular uptake. It is filed as ADME, cell-based.

In the case of `O=C1C(=Cc2cc(Br)c(O)c(Br)c2)c2cc(I)ccc2N1CCCCCCCCCCCOc1ccc2ccccc2c1/N=N/c1ccc(/N=N/c2ccccc2)cc1`, the Activity in the data set on Mus musculus stood at 62%.
As to `CC(=O)N[C@@H](CSc1nc2c(=O)[nH]c(N)nc2n1Cc1ccc(F)cc1)C(=O)NCCCOCCOCCOCCCCC(=O)C(=O)c1c(-c2ccccc2)[nH]c2ccccc12`, the Activity in data set [1] is listed as 50%.
As for `CC(=O)N[C@@H]1[C@@H](O)[C@@H](O)[C@@H](CO)O[C@@H]1O`, the “fold change (FC)” value in data set [2] is listed as 16.
For `O=c1cc(-c2ccccc2)c2c(OCCCCCCCCCCOc3ccc4ccccc4c3/N=N/c3ccc(/N=N/c4ccccc4)cc3)cc(O)cc2o1`, in the data set with Mus musculus, the Activity was 62%.
In the case of `N[C@@H](COC1O[C@H](CCP(=O)(O)O)[C@@H](O)[C@H](O)[C@@H]1O)C(=O)O` (stereo not given in full), the “fold change (FC)” value in data set [2] worked out at 2.
